US7101664B2, “Bioactive oligopeptides” (Polymun Scientific Immunbiologische Forschung GmbH, priority 1999, dated 2006)
Like-named read-outs stand apart in the source and are kept apart here. Where a SMILES comes first, the peptide text is derived from it. Where no end group is shown, it is not given here. [ ]: non-standard residue; d: D form. βAla = NCCC(=O)O

Experiments:
Mouse hybridoma CAU 96 [1] = assay: Batch T-flask culture of hybridoma with oligopeptide supplements (Example 2); format: cell-based; conditions: for growth stimulating effect on the hybridoma cell line (in words): Tables 3 to 7
Text: Cells: Mouse hybridoma CAU 96 producing monoclonal lgG2a
Starting viable cell density is 310000 (3.1*10^5) cells per ml.

Mouse hybridoma CAU 96 [2] = assay: Amino acid analysis of the culture medium during cultivation of hybridoma cells with tetrapeptide
Protocol: (§1) Cells: Mouse hybridoma CAU 96 producing monoclonal lgG2a antibody.
(§2) Medium: DMEM/F-12/RPMI 1640 (2:1:1) supplemented with Basal Medium Eagle (BME) amino acids, 2.0 mM glutamine, 15 mM HEPES (N-2-Hydroxyethylpiperazine-N′-2-ethanesulfonic acid), 2.0 g/l sodium bicarbonate and 0.4 mM ferric citrate.
(§3) Culture mode: 25 cm^3 T-flasks (Nunc) culture volume 6.0 ml, placed at 37° C. in an incubator with 5% CO^2; starting viable cell density is 3.1×10^5 cells per ml.
(§4) Preparation of samples of amino acid analysis: Cells are removed by low-speed centrifugation and macromolecular components are removed by ultrafiltration.

Mouse hybridoma CAU 96 [3] = system: Mouse hybridoma CAU 96
Protocol: as §1, §2, §3, §4

Mouse hybridoma CAU 96 [4] = system: Mouse hybridoma CAU 96; remark: listed apart in the source
Protocol: Medium: DMEM/F-12/RPMI 1640 (2:1:1) supplemented with BME amino acids, MEM non essential amino acids, 2.0 mM glutamine, 15 mM HEPES, 2.0 g/L sodium bicarbonate and 0.4 mM ferric citrate.
Culture mode: 25 cm^2 T-flasks (Supplier: Nunc), culture volume 6.0 ml, placed at 37° C. in an incubator with 5% CO2; starting viable cell density is 3.1×10^5 cells per ml.

[5] = Table 6, Day 6, supplement 0.1% w/v
[6] = Table 6, Day 6, supplement 0.2% w/v
[7] = Table 5, Day 6, supplement 0.05% w/v
[8] = Table 5, Day 6, supplement 0.1% w/v
[9] = Table 5, Day 6, supplement 0.2% w/v
[10] = Table 5, Day 6, supplement 0.3% w/v
[11] = Table 3, Day 7, supplement 0.2% w/v
[12] = Table 7, Day 6, supplement 0.1% w/v
[13] = Table 7, Day 6, supplement 0.2% w/v
[14] = Table 7, Day 6, supplement 0.05% w/v
[15] = Table 4, Day 6, supplement 0.1% w/v
[16] = Table 4, Day 6, supplement 0.2% w/v

Compound: Gly-Lys-Gly
- Monoclonal antibody (Mouse hybridoma CAU 96 [1]; [5]): 128 mg/L
- Viability (Mouse hybridoma CAU 96 [1]; [5]): 67%
- Viable cell number (Mouse hybridoma CAU 96 [1]; [5]): 1250 cells/μL
- Monoclonal antibody (Mouse hybridoma CAU 96 [1]; [6]): 154 mg/L
- Viability (Mouse hybridoma CAU 96 [1]; [6]): 62%
- Viable cell number (Mouse hybridoma CAU 96 [1]; [6]): 1100 cells/μL

Compound: Thr-Thr-Thr [Trithreonine]
- Monoclonal antibody (Mouse hybridoma CAU 96 [1]; [7]): 122 mg/L
- Viability (Mouse hybridoma CAU 96 [1]; [7]): 67%
- Viable cell number (Mouse hybridoma CAU 96 [1]; [7]): 1310 cells/μL
- Monoclonal antibody (Mouse hybridoma CAU 96 [1]; [8]): 130 mg/L
- Viability (Mouse hybridoma CAU 96 [1]; [8]): 70%
- Viable cell number (Mouse hybridoma CAU 96 [1]; [8]): 1370 cells/μL
- Monoclonal antibody (Mouse hybridoma CAU 96 [1]; [9]): 152 mg/L
- Viability (Mouse hybridoma CAU 96 [1]; [9]): 73%
- Viable cell number (Mouse hybridoma CAU 96 [1]; [9]): 1450 cells/μL

Compound: Ser-Ser-Ser [Triserine]
- Monoclonal antibody (Mouse hybridoma CAU 96 [1]; [7]): 109 mg/L
- Viability (Mouse hybridoma CAU 96 [1]; [7]): 61%
- Viable cell number (Mouse hybridoma CAU 96 [1]; [7]): 1200 cells/μL
- Monoclonal antibody (Mouse hybridoma CAU 96 [1]; [8]): 112 mg/L
- Viability (Mouse hybridoma CAU 96 [1]; [8]): 65%
- Viable cell number (Mouse hybridoma CAU 96 [1]; [8]): 1340 cells/μL
- Monoclonal antibody (Mouse hybridoma CAU 96 [1]; [9]): 126 mg/L
- Viability (Mouse hybridoma CAU 96 [1]; [9]): 70%
- Viable cell number (Mouse hybridoma CAU 96 [1]; [9]): 1550 cells/μL
- Monoclonal antibody (Mouse hybridoma CAU 96 [1]; [10]): 142 mg/L
- Viability (Mouse hybridoma CAU 96 [1]; [10]): 78%
- Viable cell number (Mouse hybridoma CAU 96 [1]; [10]): 1610 cells/μL

Compound: Gly-Gly-Gly-Gly-Gly-Gly [Hexaglycine]
- Viable cell number % of control (Mouse hybridoma CAU 96 [1]): 183 % of control
- Monoclonal antibody (Mouse hybridoma CAU 96 [1]; [11]): 160 mg/L
- Viability (Mouse hybridoma CAU 96 [1]; [11]): 79%
- Viable cell number (Mouse hybridoma CAU 96 [1]; [11]): 1940 cells/μL

Compound: Gly-Gly-His-Gly (GGHG)
- Monoclonal antibody (Mouse hybridoma CAU 96 [1]; [12]): 93 mg/L
- Viability (Mouse hybridoma CAU 96 [1]; [12]): 77%
- Viable cell number (Mouse hybridoma CAU 96 [1]; [12]): 1360 cells/μL
- Monoclonal antibody (Mouse hybridoma CAU 96 [1]; [13]): 84 mg/L
- Viability (Mouse hybridoma CAU 96 [1]; [13]): 71%
- Viable cell number (Mouse hybridoma CAU 96 [1]; [13]): 1180 cells/μL

Compound: Gly-Gly-Lys-Ala (GGKA)
- Monoclonal antibody (Mouse hybridoma CAU 96 [1]; [12]): 118 mg/L
- Viability (Mouse hybridoma CAU 96 [1]; [12]): 79%
- Viable cell number (Mouse hybridoma CAU 96 [1]; [12]): 1310 cells/μL
- Monoclonal antibody (Mouse hybridoma CAU 96 [1]; [13]): 134 mg/L
- Viability (Mouse hybridoma CAU 96 [1]; [13]): 78%
- Viable cell number (Mouse hybridoma CAU 96 [1]; [13]): 1290 cells/μL

Compound: Gly-βAla-Gly-Gly (G[βAla]GG)
- Monoclonal antibody (Mouse hybridoma CAU 96 [1]; [14]): 121 mg/L
- Viability (Mouse hybridoma CAU 96 [1]; [14]): 68%
- Viable cell number (Mouse hybridoma CAU 96 [1]; [14]): 1100 cells/μL
- Monoclonal antibody (Mouse hybridoma CAU 96 [1]; [12]): 129 mg/L
- Viability (Mouse hybridoma CAU 96 [1]; [12]): 65%
- Viable cell number (Mouse hybridoma CAU 96 [1]; [12]): 1150 cells/μL
- Monoclonal antibody (Mouse hybridoma CAU 96 [1]; [13]): 150 mg/L
- Viability (Mouse hybridoma CAU 96 [1]; [13]): 72%
- Viable cell number (Mouse hybridoma CAU 96 [1]; [13]): 1270 cells/μL

Compound: Gly-Gly-Glu-Ala (GGEA)
- Monoclonal antibody (Mouse hybridoma CAU 96 [1]; [12]): 100 mg/L
- Viability (Mouse hybridoma CAU 96 [1]; [12]): 82%
- Viable cell number (Mouse hybridoma CAU 96 [1]; [12]): 1350 cells/μL
- Monoclonal antibody (Mouse hybridoma CAU 96 [1]; [13]): 113 mg/L
- Viability (Mouse hybridoma CAU 96 [1]; [13]): 77%
- Viable cell number (Mouse hybridoma CAU 96 [1]; [13]): 1280 cells/μL

Compound: Ala-Ala-Ala [Trialanine]
- Monoclonal antibody (Mouse hybridoma CAU 96 [1]; [15]): 130 mg/L
- Viability (Mouse hybridoma CAU 96 [1]; [15]): 69%
- Viable cell number (Mouse hybridoma CAU 96 [1]; [15]): 1390 cells/μL
- Monoclonal antibody (Mouse hybridoma CAU 96 [1]; [16]): 132 mg/L
- Viability (Mouse hybridoma CAU 96 [1]; [16]): 70%
- Viable cell number (Mouse hybridoma CAU 96 [1]; [16]): 1420 cells/μL

Compound: NCC(=O)NCC(=O)NCC(=O)O [Triglycine, Gly-Gly-Gly] (H-Gly-Gly-Gly-OH)
- Viability (Mouse hybridoma CAU 96 [1]; 0.1 % w/v): 78%
- Monoclonal antibody (Mouse hybridoma CAU 96 [1]; [11]): 160 mg/L
- Viable cell number (Mouse hybridoma CAU 96 [1]; [11]): 1660 cells/μL
- Monoclonal antibody (Mouse hybridoma CAU 96 [1]; [5]): 98 mg/L
- Viable cell number (Mouse hybridoma CAU 96 [1]; [5]): 1350 cells/μL
- Monoclonal antibody (Mouse hybridoma CAU 96 [1]; [6]): 89 mg/L
- Viable cell number (Mouse hybridoma CAU 96 [1]; [6]): 1300 cells/μL

Compound: C[C@H](N)C(=O)N[C@@H](C)C(=O)N[C@@H](C)C(=O)N[C@@H](C)C(=O)O [Tetraalanine, Ala-Ala-Ala-Ala] (H-AAAA-OH; N-terminus and C-terminus assumed)
- Amino acid concentration, Day 0 (Mouse hybridoma CAU 96 [2]; Table 2, culture medium with tetraalanine, day 0): 1.84
- Amino acid concentration, Day 4 (Mouse hybridoma CAU 96 [2]; Table 2, culture medium with tetraalanine, day 4): 1.28
- Amino acid concentration, Difference (Mouse hybridoma CAU 96 [2]; Table 2, day 4 minus day 0): −0.56
- Viability (Mouse hybridoma CAU 96 [1]; 0.1 % w/v): 66%
- Viability (Mouse hybridoma CAU 96 [1]; 0.2 % w/v): 72%

Compound: Gly-Arg-Gly
- Monoclonal antibody (Mouse hybridoma CAU 96 [1]; [5]): 106 mg/L
- Viability (Mouse hybridoma CAU 96 [1]; [5]): 65%
- Viable cell number (Mouse hybridoma CAU 96 [1]; [5]): 1360 cells/μL
- Monoclonal antibody (Mouse hybridoma CAU 96 [1]; [6]): 121 mg/L
- Viability (Mouse hybridoma CAU 96 [1]; [6]): 66%
- Viable cell number (Mouse hybridoma CAU 96 [1]; [6]): 1270 cells/μL

Compound: Gly-Asp-Gly
- Monoclonal antibody (Mouse hybridoma CAU 96 [1]; [5]): 98 mg/L
- Viability (Mouse hybridoma CAU 96 [1]; [5]): 64%
- Viable cell number (Mouse hybridoma CAU 96 [1]; [5]): 1340 cells/μL
- Monoclonal antibody (Mouse hybridoma CAU 96 [1]; [6]): 92 mg/L
- Viability (Mouse hybridoma CAU 96 [1]; [6]): 70%
- Viable cell number (Mouse hybridoma CAU 96 [1]; [6]): 1420 cells/μL

Compound: Gly-Gly-Gly-Gly-Gly [Pentaglycine]
- Viable cell number % of control (Mouse hybridoma CAU 96 [1]): 190 % of control
- Monoclonal antibody (Mouse hybridoma CAU 96 [1]; [11]): 165 mg/L
- Viability (Mouse hybridoma CAU 96 [1]; [11]): 82%
- Viable cell number (Mouse hybridoma CAU 96 [1]; [11]): 2020 cells/μL

Compound: N[C@@H](CO)C(=O)O [Serine, reference compound]
- Viable cell number % of control (Mouse hybridoma CAU 96 [1]): 104 % of control
- Monoclonal antibody (Mouse hybridoma CAU 96 [1]; [9]): 111 mg/L
- Viability (Mouse hybridoma CAU 96 [1]; [9]): 63%
- Viable cell number (Mouse hybridoma CAU 96 [1]; [9]): 1190 cells/μL
- growth stimulating effect on the hybridoma cell line (in words) (Mouse hybridoma CAU 96 [1]): insignificant

Compound: NCC(=O)NCC(=O)NCC(=O)NCC(=O)O [Tetraglycine, Gly-Gly-Gly-Gly] (H-GGGG-OH; N-terminus and C-terminus assumed)
- Viable cell number % of control (Mouse hybridoma CAU 96 [1]): 176 % of control
- Viability (Mouse hybridoma CAU 96 [1]; 0.2 % w/v): 80%
- Amino acid concentration, Day 0 (Mouse hybridoma CAU 96 [3]): 7.14 mM
- Amino acid concentration, Day 4 (Mouse hybridoma CAU 96 [3]): 6.55 mM
- Viability (Mouse hybridoma CAU 96 [4]; 0.1 % w/v): 78%
- Viability (Mouse hybridoma CAU 96 [4]; 0.2 % w/v): 77%
- Viability (Mouse hybridoma CAU 96 [4]; 0.3 % (w/v)): 80%

Compound: Diglycine
- Viable cell number % of control (Mouse hybridoma CAU 96 [1]): 114 % of control
- Monoclonal antibody (Mouse hybridoma CAU 96 [1]; [11]): 165 mg/L
- Viability (Mouse hybridoma CAU 96 [1]; [11]): 70%
- Viable cell number (Mouse hybridoma CAU 96 [1]; [11]): 1210 cells/μL

Compound: Gly-His-Gly
- Monoclonal antibody (Mouse hybridoma CAU 96 [1]; [5]): 121 mg/L
- Viability (Mouse hybridoma CAU 96 [1]; [5]): 65%
- Viable cell number (Mouse hybridoma CAU 96 [1]; [5]): 1180 cells/μL
- Monoclonal antibody (Mouse hybridoma CAU 96 [1]; [6]): 144 mg/L
- Viability (Mouse hybridoma CAU 96 [1]; [6]): 66%
- Viable cell number (Mouse hybridoma CAU 96 [1]; [6]): 900 cells/μL

Compound: C[C@@H](O)[C@H](N)C(=O)O [Threonine, reference compound]
- Viable cell number % of control (Mouse hybridoma CAU 96 [1]): 97 % of control
- Monoclonal antibody (Mouse hybridoma CAU 96 [1]; [9]): 114 mg/L
- Viability (Mouse hybridoma CAU 96 [1]; [9]): 59%
- Viable cell number (Mouse hybridoma CAU 96 [1]; [9]): 1100 cells/μL

Compound: C[C@H](N)C(=O)O [Alanine, reference compound]
- Viable cell number % of control (Mouse hybridoma CAU 96 [1]): 94 % of control
- Monoclonal antibody (Mouse hybridoma CAU 96 [1]; [16]): 110 mg/L
- Viability (Mouse hybridoma CAU 96 [1]; [16]): 60%
- Viable cell number (Mouse hybridoma CAU 96 [1]; [16]): 1030 cells/μL
- growth stimulating effect on the hybridoma cell line (in words) (Mouse hybridoma CAU 96 [1]): insignificant

Compound: NCC(=O)O [Glycine, reference compound]
- Viable cell number % of control (Mouse hybridoma CAU 96 [1]): 102 % of control
- Monoclonal antibody (Mouse hybridoma CAU 96 [1]; [11]): 160 mg/L
- Viability (Mouse hybridoma CAU 96 [1]; [11]): 60%
- Viable cell number (Mouse hybridoma CAU 96 [1]; [11]): 1080 cells/μL
- growth stimulating effect on the hybridoma cell line (in words) (Mouse hybridoma CAU 96 [1]): does not significantly stimulate cell growth

Compound: NCCC(=O)O [β-alanine, reference compound]
- Viable cell number % of control (Mouse hybridoma CAU 96 [1]): 106 % of control
- Monoclonal antibody (Mouse hybridoma CAU 96 [1]; [9]): 105 mg/L
- Viability (Mouse hybridoma CAU 96 [1]; [9]): 60%
- Viable cell number (Mouse hybridoma CAU 96 [1]; [9]): 1210 cells/μL
- growth stimulating effect on the hybridoma cell line (in words) (Mouse hybridoma CAU 96 [1]): insignificant
